Test results taken from US6995281B2, “Methods for selectively removing counterions from compounds and compounds derived from such methods” (Pfizer, Inc., priority 2003, dated 2006).
Counter-ions that a name gives are not always drawn.

How the values were obtained:
Format in all cases: physicochemical
[1] = HPLC analysis after removal of excess HCl with anion exchange resin (Example 4); conditions: pH raised from 1.04 to 2.5 with Amberlite 400 (OH) resin
Protocol: To 3.3 g of sample containing around 305 mg/ml S-[2-[(1-Iminoethyl)amino]ethyl]-2-methyl-L-cysteine dihydrochloride and around 0.2 eq excess HCl, was added 16.7 g of deioinized water. The pH was 1.04. To 14 ml of this solution, prewashed Amberlite 400 (OH) resin was added to obtain a ph of 2.5. The anion exchange treatment lightened the color of the solution from light yellow to water white. The resin was removed by filtration and the starting material and filtrate product were analyzed by chloride titration and HPLC.

[2] = Pseudo-titration in water with IRA-400(OH) anion exchange resin, samples assayed by HPLC (Example 3); conditions: not a true titration curve
Protocol: 60 g of Amberlite IRA400 (OH) resin (a strongly anionic quaternary ammonium polystyrene resin, about 16–50 mesh, available from Rohm & Haas, Philadelphia, Pa.,) was prewashed with 4.7 percent (by weight) ammonium hydroxide (50 ml of 28 percent ammonium hydroxide, 250 ml deionized water), followed by extensive washing with deionized water. The final conductivity was 6.1 μS.
Samples containing about 0.9 g of S-[2-[(1-Iminoethyl)amino]ethyl]-2-methyl-L-cysteine di-hydrochloride in 142 ml HCl/water solution, were concentrated on a rotary evaporator at 60° C. to an oil. To the oil, diluted to 60 ml with deionized water, was added aliquots of 0.5 g of washed anion exchange resin while stirring. At five minutes after each aliquot of resin was added, the solution pH was measured and a sample removed through a syringe filter. A total of 9 g of anion exchange resin was added. The final pH was 10.8. The resin was removed by filtration and the filtrate was concentrated to an oil by rotary evaporation at 60° C.; no solids formed. The starting material, final filtrate and all intermediate samples were assayed by HPLC and ion chromatography for chloride.
The diamond (solid line) is pH and square (dashed line) is S-[2-[(1-Iminoethyl)amino]ethyl]-2-methyl-L-cysteine (percent initial, by ion chromatography). […] The diamond (solid line) is pH and triangle (broken line) is chloride (by ion chromatography).
These curves are not true titration curves since samples were withdrawn during the progress of the reaction, and since true equilibrium was not attained before the increments of resin were added. Nevertheless, the graphs of FIG. 2 and FIG. 3 illustrate the expected trends. As resin is added to the S-[2-[(1-Iminoethyl)amino]ethyl]-2-methyl-L-cysteine solution the pH rises with change in slope around pH's of 2, 9 and 11. The pH's of slower rise are representative of the pK's of the carboxylic acid, amine and amidine functional groups, respectively. Above a pH of 10, the S-[2-[(1-Iminoethyl)amino]ethyl]-2-methyl-L-cysteine concentration in solution decreases. […]

[3] = Stability of free zwitterion samples at different pH by ion pairing gradient HPLC (Example 6, Table 2); conditions: summary of Table 2
Protocol: Amberlite IRA400 (Cl) resin was rinsed with 3M HCl, water, and then 3M NaOH. Aliquots were 100 ml per 10 g of resin. This procedure was repeated 3 times in order to clean the resin and in order to generate the OH form. A final rinse with water was carried out until the conductivity of the eluting water was 2 μS. The resin was then used to titrate 40 ml of a 50 mg/ml solution of S-[2-[(1-Iminoethyl)amino]ethyl]-2-methyl-L-cysteine dihydrochloride. The concentration is expressed in terms of zwitterion equivalents. Aliquots were taken throughout the titration, filtered and analyzed by HPLC. Subsamples of the aliquots were saved for a second HPLC analysis 1 week after the titration was performed in order to assess the stability of the samples. Additional aliquots were taken for Cl analysis using an ion selective electrode. The pH was also monitored throughout the titration. HPLC analyses were performed using an ion pairing gradient method. […] HPLC Method • Pump A: 20 mM KH2PO4, 10 mM Pentane sulfonic acid, adjusted to pH=3 with phosphoric acid • Pump B: Acetonitrile • Gradient: 0% B at 0 min, 26% B at 15 min, 0% B at 15.1 min • Column: YMC ODS-AQ 120 A, 5 μm, 2.6×150 mm • Wavelength=205 nm

CC(=N)NCCSC[C@](C)(N)C(=O)O [Example 1, S-[2-[(1-Iminoethyl)amino]ethyl]-2-methyl-L-cysteine, dihydrochloride]
Qualitative HPLC analysis of starting material and product [1]: no new peaks and no increase in impurities

CC(=N)NCCSC[C@](C)(N)C(=O)O [S-[2-[(1-Iminoethyl)amino]ethyl]-2-methyl-L-cysteine]
pH of slower rise representative of the pK of the amidine group [2]: ~11
pH of slower rise representative of the pK of the amine group [2]: ~9
pH of slower rise representative of the pK of the carboxylic acid group [2]: ~2
Degradation when made basic (HPLC) [3]: degradation is not immediate but instead occurs over a period of days
